{
  "source": "patent US20220340597A1",
  "about": "“HEXAHYDRO-1H-PYRAZINO[1,2-A]PYRAZINE COMPOUNDS FOR THE TREATMENT OF AUTOIMMUNE DISEASE” (Hoffmann-La Roche Inc., priority 2019, published 2022)",
  "key": {"human TLR9": {"target": "T1, human TLR9 (Homo sapiens, UniProt Q9NR96)", "T1 construct": "host or cells: HEK293 (HEK-Blue hTLR9)", "T1 sequence (Q9NR96 26-1032)": "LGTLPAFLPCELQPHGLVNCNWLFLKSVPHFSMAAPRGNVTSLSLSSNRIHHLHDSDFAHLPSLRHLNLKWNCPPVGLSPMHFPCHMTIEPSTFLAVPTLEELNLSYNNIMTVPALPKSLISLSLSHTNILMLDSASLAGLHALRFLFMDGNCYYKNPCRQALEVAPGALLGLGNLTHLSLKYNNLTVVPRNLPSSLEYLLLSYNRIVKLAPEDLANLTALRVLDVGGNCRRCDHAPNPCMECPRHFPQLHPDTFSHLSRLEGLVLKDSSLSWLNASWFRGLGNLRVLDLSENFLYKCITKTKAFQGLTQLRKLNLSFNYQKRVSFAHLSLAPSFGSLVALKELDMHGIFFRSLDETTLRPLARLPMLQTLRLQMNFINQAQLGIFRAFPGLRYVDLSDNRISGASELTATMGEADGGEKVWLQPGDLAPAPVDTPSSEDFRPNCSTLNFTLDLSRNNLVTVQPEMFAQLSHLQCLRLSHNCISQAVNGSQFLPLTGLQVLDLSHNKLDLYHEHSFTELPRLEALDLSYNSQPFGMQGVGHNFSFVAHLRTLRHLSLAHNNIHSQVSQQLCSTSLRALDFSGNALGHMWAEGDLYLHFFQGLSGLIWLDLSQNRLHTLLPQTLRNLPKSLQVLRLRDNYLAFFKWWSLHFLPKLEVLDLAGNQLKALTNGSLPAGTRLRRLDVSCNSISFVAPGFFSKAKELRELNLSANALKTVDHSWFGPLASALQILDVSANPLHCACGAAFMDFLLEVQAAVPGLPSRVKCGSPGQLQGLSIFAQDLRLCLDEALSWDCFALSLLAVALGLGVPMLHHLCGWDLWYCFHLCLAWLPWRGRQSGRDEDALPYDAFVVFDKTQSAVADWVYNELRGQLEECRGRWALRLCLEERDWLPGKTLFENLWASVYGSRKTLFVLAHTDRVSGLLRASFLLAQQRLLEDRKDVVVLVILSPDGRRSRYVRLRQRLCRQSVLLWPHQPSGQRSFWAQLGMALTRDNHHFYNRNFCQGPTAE", "test": "HEK293-Blue-hTLR-9 cells assay", "type": "cell-based", "conditions": "HEK293-Blue-hTLR9 cells, ODN2006 stimulation, 20 hrs, SEAP reporter; read-out: HEK/hTLR9 IC50"}, "hERG channel": {"target": "T2, hERG channel (Homo sapiens, UniProt Q12809)", "T2 construct": "expressed in transfected cells; host or cells: CHO (Chinese hamster ovary), CHOhERG", "T2 sequence (Q12809 whole entry)": "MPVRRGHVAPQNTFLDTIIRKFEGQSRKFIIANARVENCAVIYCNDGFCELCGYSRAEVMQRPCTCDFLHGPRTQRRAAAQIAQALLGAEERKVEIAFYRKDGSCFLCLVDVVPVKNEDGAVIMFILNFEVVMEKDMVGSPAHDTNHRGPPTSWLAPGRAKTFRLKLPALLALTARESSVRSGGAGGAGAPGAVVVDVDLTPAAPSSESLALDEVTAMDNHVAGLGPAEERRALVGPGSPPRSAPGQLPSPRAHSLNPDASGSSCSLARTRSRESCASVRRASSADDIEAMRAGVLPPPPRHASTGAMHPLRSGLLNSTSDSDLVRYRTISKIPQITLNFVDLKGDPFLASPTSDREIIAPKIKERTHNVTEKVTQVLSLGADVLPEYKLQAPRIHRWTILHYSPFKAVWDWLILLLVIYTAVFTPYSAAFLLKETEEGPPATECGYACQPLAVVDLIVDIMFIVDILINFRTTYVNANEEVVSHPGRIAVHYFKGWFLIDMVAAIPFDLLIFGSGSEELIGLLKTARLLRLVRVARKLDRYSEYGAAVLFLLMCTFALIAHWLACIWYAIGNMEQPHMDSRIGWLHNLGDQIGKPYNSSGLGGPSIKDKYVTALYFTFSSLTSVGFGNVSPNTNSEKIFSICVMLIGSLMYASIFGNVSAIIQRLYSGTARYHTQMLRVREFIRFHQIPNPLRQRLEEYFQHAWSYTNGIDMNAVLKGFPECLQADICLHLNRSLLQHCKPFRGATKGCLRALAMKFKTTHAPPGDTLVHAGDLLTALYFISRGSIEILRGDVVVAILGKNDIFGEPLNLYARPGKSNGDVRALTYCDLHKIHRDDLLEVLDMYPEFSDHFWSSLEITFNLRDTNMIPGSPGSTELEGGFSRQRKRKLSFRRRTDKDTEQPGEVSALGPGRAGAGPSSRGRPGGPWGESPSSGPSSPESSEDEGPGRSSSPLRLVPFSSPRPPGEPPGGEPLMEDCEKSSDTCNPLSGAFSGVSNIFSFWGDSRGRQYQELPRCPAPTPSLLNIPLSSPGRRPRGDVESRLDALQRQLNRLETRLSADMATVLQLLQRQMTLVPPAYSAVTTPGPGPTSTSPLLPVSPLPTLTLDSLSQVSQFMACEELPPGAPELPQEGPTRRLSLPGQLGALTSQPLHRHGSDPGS", "test": "hERG channel inhibition assay (patch-clamp, CHOhERG cells)", "type": "cell-based", "outline": "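Whole-cell voltage-clamp recordings of IKhERG in CHO cells stably expressing human hERG, stimulated at 0.1 Hz. Compound applied at rising concentrations, each held 3–10 min to reach steady state; current amplitude and kinetics compared with pre-drug control set as 100%.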"}},
  "data": [
    {"smiles": "[2H]c1ccc2c(N3C[C@@H]4CN(c5ccc6c(n5)CCNC6)CCN4[C@@H](C)C3)ccc(C#N)c2n1", "note": "[Example 121, 5-[(4S,9aR)-4-methyl-8-(5,6,7,8-tetrahydro-1,6-naphthyridin-2-yl)-3,4,6,7,9,9a-hexahydro-1H-pyrazino[1,2-a]pyrazin-2-yl]-2-deuterio-quinoline-8-carbonitrile]", "values": [
      {"measurement": "IC50", "setting": "human TLR9", "result": 0.085, "unit": "µM"},
      {"measurement": "IC50", "setting": "hERG channel; CHOhERG cells, whole-cell patch-clamp", "result": "> 20", "unit": "µM"},
      {"measurement": "IC20", "setting": "hERG channel; human, CHO cells stably expressing hERG (CHOhERG), CHOhERG cells, whole-cell patch-clamp", "result": "> 10", "unit": "µM"},
      {"measurement": "hERG IC20/TLR7 IC50", "setting": "hERG channel; safety ratio", "result": ">2000"},
      {"measurement": "hERG IC20/TLR8 IC50", "setting": "hERG channel; safety ratio", "result": ">10000"},
      {"measurement": "hERG IC20/TLR9 IC50", "setting": "hERG channel; safety ratio", "result": ">117"}
    ]}
  ]
}
